Measurements from patent publication US5945509A, “Glutamate receptor compositions and method” (The Salk Institute for Biological Studies, priority 1995, dated 1999).
Where two headings read alike, the source gives them in different places. One block for each molecule: values may come before it.

How the values were obtained:
GluR1 = target: T1, GluR1 (Rattus norvegicus, UniProt P19490); assay: Electrophysiological recording in Xenopus oocytes injected with GluR1 in vitro RNA; assay type: cell-based
T1 construct: expressed in transfected cells; host or cells: Xenopus oocytes injected with in vitro transcribed pGluR1 sense RNA
Protocol: It depends upon the fact that when foreign mRNA is injected into Xenopus oocytes, the mRNA is translated into functional protein.
Either a λZAP cDNA preparation, or a plasmid containing the cDNA to be tested, are cut downstream from the cDNA insert with a restriction enzyme. The post-restriction digest is digested with Proteinase K and then extracted with two phenol: chloroform (1:1) extractions. The resulting DNA fragments are then ethanol precipitated. The precipitated fragments are mixed with either T3 RNA polymerase (to make sense strand), or T7 RNA polymerase (to make anti-sense strand), plus rATP, rCTP, rGTP, rUTP, and RNase inhibitor. Simultaneously, the RNA transcripts are capped with a sodium diguanosine triphosphate [G(5')ppp(5')G] cap. The water used for the above procedures is treated with diethylpyrocarbonate to inactivate RNases.
The in vitro synthesized mRNA transcripts are injected into Xenopus oocytes. 50 nl of an RNA solution, 0.2-0.6 mg/ml, is injected into the stage V oocytes. The injected oocytes are incubated at 16° C. in Barth's medium for 2-7 days before they are analyzed for the presence of functional receptors.
Voltage recordings are made by penetrating the oocyte with a micro-electrode filled with 3M KCl and connected to the bridge circuit of an appropriate voltage clamp unit, e.g., the Dagan 8500 voltage clamp unit. Voltage recordings are preferably obtained with two electrodes, a voltage electrode filled with 3M KCl and a current electrode filled with 0.25 M CsCl, 0.25 M CsF and 50 mM EGTA (ethylene glycol tetraacetic acid).
Oocytes employed herein are obtained from ovarian tissue from anesthetized adult female Xenopus. The ovarian tissue is treated with collagenase, 2 mg/ml, for two hours and then the ovarian epithelium and follicular cells are dissected away.
The plasmid pGluR1 was subsequently rescued from bacteriophage λZAPII-GluR1.
3 days prior to the recording. The oocytes were voltageclamped at -70 mV,
applied by rapid superfusion, with 5 minute intervals between drugs. Peak
currents were recorded; each number represents the average of 3 recording
from 3 different oocytes, ± SEM.
(§1) The data in FIG. 3B represent the responses of oocytes to the indicated agonists measured 3 days after injection with GluR1 (2 ng) or GluR3 (2 ng) RNA or adult rat brain hippocampus poly(A)^+ RNA (~50 ng). All values are normalized to the response obtained with […] and are presented as the mean±S.E.M. with n≥3 for all measurements.

homomeric GluR6 receptor = target: T2, homomeric GluR6 receptor (Rattus norvegicus, UniProt P42260, I567V/Q621R/Y571C); assay: Current recording in Xenopus oocytes injected with GluR6 RNA (homomeric GluR6 receptor); assay type: cell-based; conditions: for current measured at -70 mV: 10 μM kainate
T2 construct: engineer a cDNA clone encoding the entire open reading frame of the GluR6 protein; expressed in transfected cells; host or cells: Xenopus oocytes injected with in vitro transcribed GluR6 RNA

GluR5-2 = GluR5-2 (Rattus norvegicus, UniProt P22756); assay type: cell-based
From the text: (§2) In vitro synthesized GluR5-1 and GluR5-2 cRNAs were individually expressed in Xenopus oocytes.

[1] = test system: oocytes injected with poly(A)+ RNA isolated from rat forebrain; assay type: cell-based; conditions: 2-10 days after injection
GluR5-1 = assay type: cell-based, rat
From the text: as §2

GluR3 = assay type: cell-based, rat
Protocol: Thus, oocytes were injected with in vitro synthesized RNA transcripts derived from individual cDNA clones.
as §1

[2] = test system: oocytes injected with pool of in vitro transcripts from rat forebrain cDNA library; assay: Voltage recordings from oocytes injected with pooled in vitro transcripts of the λZAPII RTB1 cDNA library; assay type: cell-based; conditions: 10 days after injection
Protocol: A directional cDNA library (λZAPII RTB1; complexity: 8×10^5 elements), consisting of 18 independent sublibraries of 44,000 clones each, was constructed from this poly(A)^+ RNA using the bacteriophage expression vector λZAPII. A pool of in vitro transcripts, comprised of transcripts made separately from all 18 amplified sublibraries, was injected into oocytes. […] Subsequently, pools of 44,000 clones (=the single sublibraries), 4,000, 400 and 40 clones were tested.

[3] = oocytes held at -100 mV, without Con A, AMPA 100 μM
[4] = QUIS 10 μM, AMPA 50 μM, GLU 100 μM, NMDA 30 μM plus 10 μM glycine, APB 50 μM, -70 mV, 3 days after 2 ng RNA

T2 sequence (P42260 with tags, fused parts or gaps I567V/Y571C/Q621R): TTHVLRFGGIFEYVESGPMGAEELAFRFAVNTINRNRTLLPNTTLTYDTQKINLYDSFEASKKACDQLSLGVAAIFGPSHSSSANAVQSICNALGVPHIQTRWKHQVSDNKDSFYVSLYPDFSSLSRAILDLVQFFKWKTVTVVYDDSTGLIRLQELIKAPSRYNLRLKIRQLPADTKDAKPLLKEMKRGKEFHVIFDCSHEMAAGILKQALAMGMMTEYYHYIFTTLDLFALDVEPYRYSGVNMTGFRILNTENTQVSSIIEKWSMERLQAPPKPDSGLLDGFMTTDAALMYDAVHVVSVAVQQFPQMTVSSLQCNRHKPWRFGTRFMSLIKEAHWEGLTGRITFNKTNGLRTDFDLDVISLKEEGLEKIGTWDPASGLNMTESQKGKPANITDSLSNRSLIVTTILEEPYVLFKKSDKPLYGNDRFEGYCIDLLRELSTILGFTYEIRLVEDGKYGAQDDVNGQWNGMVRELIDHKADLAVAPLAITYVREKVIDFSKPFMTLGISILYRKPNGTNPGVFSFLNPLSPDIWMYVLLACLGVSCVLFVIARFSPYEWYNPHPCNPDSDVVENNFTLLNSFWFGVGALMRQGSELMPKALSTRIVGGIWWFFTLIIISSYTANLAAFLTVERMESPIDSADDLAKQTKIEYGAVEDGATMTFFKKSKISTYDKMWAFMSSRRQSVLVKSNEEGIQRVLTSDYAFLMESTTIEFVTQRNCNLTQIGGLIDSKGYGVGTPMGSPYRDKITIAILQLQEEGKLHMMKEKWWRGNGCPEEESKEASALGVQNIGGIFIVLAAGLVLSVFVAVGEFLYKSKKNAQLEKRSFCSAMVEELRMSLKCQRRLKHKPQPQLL
Chain of GluR5-2 (P22756 31-949): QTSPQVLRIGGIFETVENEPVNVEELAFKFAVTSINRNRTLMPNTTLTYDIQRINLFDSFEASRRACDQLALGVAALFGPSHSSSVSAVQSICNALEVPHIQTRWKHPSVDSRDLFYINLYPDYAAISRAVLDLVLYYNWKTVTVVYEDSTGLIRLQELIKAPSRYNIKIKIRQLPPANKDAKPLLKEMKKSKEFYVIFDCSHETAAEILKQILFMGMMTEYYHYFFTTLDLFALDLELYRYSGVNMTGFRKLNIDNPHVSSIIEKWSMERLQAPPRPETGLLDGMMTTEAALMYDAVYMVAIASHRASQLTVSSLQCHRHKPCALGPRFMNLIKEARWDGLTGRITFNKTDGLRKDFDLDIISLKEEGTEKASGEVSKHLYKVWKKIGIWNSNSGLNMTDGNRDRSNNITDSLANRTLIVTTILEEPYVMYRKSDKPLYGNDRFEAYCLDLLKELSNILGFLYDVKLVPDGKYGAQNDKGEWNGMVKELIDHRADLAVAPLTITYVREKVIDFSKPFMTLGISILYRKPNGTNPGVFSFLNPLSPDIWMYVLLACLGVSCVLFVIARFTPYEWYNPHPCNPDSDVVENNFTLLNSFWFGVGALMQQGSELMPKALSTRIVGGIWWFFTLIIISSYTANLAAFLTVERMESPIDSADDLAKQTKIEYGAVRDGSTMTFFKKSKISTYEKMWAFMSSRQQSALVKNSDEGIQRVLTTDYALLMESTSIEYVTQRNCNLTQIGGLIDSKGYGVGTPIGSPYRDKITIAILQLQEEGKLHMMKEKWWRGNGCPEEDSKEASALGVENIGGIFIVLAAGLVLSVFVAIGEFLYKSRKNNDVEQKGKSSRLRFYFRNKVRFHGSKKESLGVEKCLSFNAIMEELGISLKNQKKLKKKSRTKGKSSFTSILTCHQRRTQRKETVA
T1 sequence (P19490 19-907): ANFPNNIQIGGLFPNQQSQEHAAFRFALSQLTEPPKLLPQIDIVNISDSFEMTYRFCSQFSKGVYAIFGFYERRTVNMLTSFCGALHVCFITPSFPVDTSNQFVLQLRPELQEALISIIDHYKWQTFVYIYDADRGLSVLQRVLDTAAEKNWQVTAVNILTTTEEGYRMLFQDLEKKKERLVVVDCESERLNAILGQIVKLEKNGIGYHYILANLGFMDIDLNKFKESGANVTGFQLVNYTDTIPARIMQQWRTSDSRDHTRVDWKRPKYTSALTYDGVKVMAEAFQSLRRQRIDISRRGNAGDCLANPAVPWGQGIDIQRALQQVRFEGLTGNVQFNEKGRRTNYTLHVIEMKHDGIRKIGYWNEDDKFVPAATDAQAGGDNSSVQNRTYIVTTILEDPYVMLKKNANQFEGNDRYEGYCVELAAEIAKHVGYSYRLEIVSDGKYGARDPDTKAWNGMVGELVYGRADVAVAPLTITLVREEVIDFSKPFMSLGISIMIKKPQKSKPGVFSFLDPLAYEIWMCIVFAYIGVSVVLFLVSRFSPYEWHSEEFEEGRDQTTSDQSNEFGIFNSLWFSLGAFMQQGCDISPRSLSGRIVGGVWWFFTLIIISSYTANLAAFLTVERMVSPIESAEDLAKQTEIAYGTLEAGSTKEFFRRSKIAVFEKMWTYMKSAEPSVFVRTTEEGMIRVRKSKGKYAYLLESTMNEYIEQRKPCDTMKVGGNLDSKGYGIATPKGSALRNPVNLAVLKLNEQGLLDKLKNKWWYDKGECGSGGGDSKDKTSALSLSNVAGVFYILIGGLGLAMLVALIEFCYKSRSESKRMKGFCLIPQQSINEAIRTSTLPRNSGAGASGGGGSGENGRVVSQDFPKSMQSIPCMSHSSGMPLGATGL

Molecule: O=C(O)c1cc(=O)c2ccccc2[nH]1 [Kynurenic acid]
- Compound Alone (%) (GluR1): 3.4 ± 0.2%

Molecule: NCCCC(=O)O [γ-aminobutyric acid]
- response evoked by unrelated neurotransmitter receptor agonists (GluR1; concentrations as high as 1 mM): failed to evoke responses

Molecule: concanavalin A [Con A]
- effect on desensitization (homomeric GluR6 receptor; 10 μM Con A for 5 minutes): efficiently decreases desensitization

Molecule: N[C@@H](Cn1oc(=O)[nH]c1=O)C(=O)O [quisqualate, quisqualic acid]
- current evoked by agonist (in words) (homomeric GluR6 receptor): activated only small inward currents
- effect on kainate-evoked current (in words) (homomeric GluR6 receptor; without Con A): attenuated a subsequent kainate evoked current
- membrane depolarization elicited by agonist (in words) (GluR5-2): did not elicit membrane depolarizations

Molecule: O=C(O)C1CN(CCCP(=O)(O)O)CCN1 (stereo not shown) [CPP, 3 (2carboxypiperazin-4-yl)propyl-1-phosphate]
- Compound Alone (%) (GluR1): 9.1 ± 0.7%

Molecule: NCC(=O)O [glycine]
- potentiation of the KA response (GluR1): did not potentiate
- response evoked by unrelated neurotransmitter receptor agonists (GluR1): failed to evoke responses

Molecule: N#Cc1cc2[nH]c(=O)c(=O)[nH]c2cc1[N+](=O)[O-] [CNQX, 6-nitro-7-cyano-quinoxaline-2,3-dione]
- block of agonist-evoked responses (in words) (homomeric GluR6 receptor): blocked both quisqualate and kainate-evoked responses

Molecule: N[C@H](CCC(=O)NCC(=O)O)C(=O)O [γ-DGG, D-glutamylglycine]
- Compound Alone (%) (GluR1): -0.1 ± 0.5%

Molecule: CCOC(=O)CC[C@H](N)C(=O)OCC [GDEE, glutamate diethylester]
- Compound Alone (%) (GluR1): 24.8 ± 5.7%
- agonist properties (in words) (GluR1; each at 1 mM): weak agonist properties

- Compound Alone (%) (GluR1; % of the response evoked by 30 μM kainate immediately before drug application, compounds at 1 mM (kainate 30 μM), -70 mV, peak currents, 3 oocytes, ± SEM): 3.1 ± 1.4%
Molecule: NC(CCCP(=O)(O)O)C(=O)O (stereo not shown) [APV, 2amino-5-phospho-novaleric acid]

Molecule: CN1CCCC1c1cccnc1 (stereo not shown) [nicotine]
- response evoked by unrelated neurotransmitter receptor agonists (GluR1): failed to evoke responses

Molecule: O=C(O)[C@H]1CCCN[C@H]1C(=O)O (relative stereo) [PDA, 2,3cis-piperidine dicarboxylic acid]
- Compound Alone (%) (GluR1): 2.5 ± 0.7%

Molecule: C=C(C)[C@H]1CN[C@H](C(=O)O)[C@H]1CC(=O)O [kainate, kainic acid]
- current measured at -70 mV (homomeric GluR6 receptor; Con A treated, modified Ringer solution (NaCl substituted by sodium methanesulfonate)): 330 nA
- current measured at -70 mV (homomeric GluR6 receptor; Ringer solution, after Con A treatment): 2.3 μa
- current measured at -70 mV (homomeric GluR6 receptor; Ringer solution, before Con A treatment): 30 nA
- time for full recovery from desensitization (homomeric GluR6 receptor; after 100 μM kainate for 30 seconds): approximately 15 minutes
- response of Con A treated oocytes (in words) (homomeric GluR6 receptor; aspartate 100 μM, NMDA 100 μM with 3 μM glycine, AMPA 10-1000 μM): responded
- current evoked by agonist (in words) (homomeric GluR6 receptor; [3]): evoked inward currents that desensitized
- 100% current response (GluR1; 30 μM kainate, -70 mV, depending on the oocyte): 40-200 nA

Molecule: NC(CCP(=O)(O)O)C(=O)O (stereo not shown) [APB, 2-amino-4-phosphonobutyric acid]
- response to selective agonists (in words) [1]: gave no response
- membrane depolarization elicited by agonist (in words) (GluR5-2; KA 100 MM, AMPA 50 μM, quisqualate 10 μM, APB 100 μM, NMDA 100 μM with 10 μM glycine): did not elicit membrane depolarizations
- response of oocytes to agonist (in words) (GluR1; [4]): No detectable responses
- membrane depolarization elicited by agonist (in words) (GluR5-1; KA, AMPA 50 μM, quisqualate 10 μM, APB 100 μM, NMDA 100 μM with 10 μM glycine): did not elicit membrane depolarizations
- response of oocytes to agonist (in words) (GluR3; [4]): No detectable responses

Molecule: Cc1onc(O)c1CC(N)C(=O)O (stereo not drawn) [AMPA, α-amino-3-hydroxy-5-methyl-isoxazole-4-propionic acid]
- response of Con A treated oocytes (in words) (homomeric GluR6 receptor): did not respond
- effect of coapplication on kainate-evoked (1 μM) responses (homomeric GluR6 receptor; AMPA 100 μM, Con A treated oocytes): no effect
- current evoked by agonist (in words) (homomeric GluR6 receptor; [3]): did not evoke any detectable current

- response evoked by unrelated neurotransmitter receptor agonists (GluR1; concentrations as high as 1 mM): failed to evoke responses
Molecule: NCCc1c[nH]c2ccc(O)cc12 [serotonin]

Molecule: CN[C@H](CC(=O)O)C(=O)O [NMDA, N-methyl-D-aspartic acid]
- response of Con A treated oocytes (in words) (homomeric GluR6 receptor): did not respond
- response to selective agonists (in words) [1]: elicited smooth responses with fast onsets
- membrane depolarization elicited by agonist (in words) (GluR5-2): did not elicit membrane depolarizations
- response evoked by glutamate receptor agonists (GluR1): no responses
- response of oocytes to agonist (in words) (GluR1): No detectable responses
- membrane depolarization elicited by agonist (in words) (GluR5-1): did not elicit membrane depolarizations
- response of oocytes to agonist (in words) (GluR3): No detectable responses
- response to agonist (in words) [2]: No responses
